Assay results taken from PubChem BioAssay (NCI).
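In this assay, cells in 96-well plates receive the compound at five concentrations for 48 hours. Endpoints are linearly interpolated between the surrounding concentrations. The concentration for full growth arrest is given as TGI.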

How the values were obtained:
Assay in all cases: NCI-60 cell line screen, 48 h
SF-539 CNS = tested on: SF-539 CNS
TK-10 renal = tested on: TK-10 renal
HL-60(TB) leukemia = tested on: HL-60(TB) leukemia
SK-MEL-5 melanoma = tested on: SK-MEL-5 melanoma
SK-OV-3 ovarian = tested on: SK-OV-3 ovarian
OVCAR-8 ovarian = tested on: OVCAR-8 ovarian
DMS 114 small cell lung = tested on: DMS 114 small cell lung
KM12 colon = tested on: KM12 colon
SNB-78 CNS = tested on: SNB-78 CNS
SNB-75 CNS = tested on: SNB-75 CNS
MALME-3M melanoma = tested on: MALME-3M melanoma
786-0 renal = tested on: 786-0 renal
EKVX NSCLC = tested on: EKVX NSCLC
LXFL 529 NSCLC = tested on: LXFL 529 NSCLC
ACHN renal = tested on: ACHN renal
RPMI-8226 leukemia = tested on: RPMI-8226 leukemia
U251 CNS = tested on: U251 CNS
CCRF-CEM leukemia = tested on: CCRF-CEM leukemia
HCT-116 colon = tested on: HCT-116 colon
OVCAR-3 ovarian = tested on: OVCAR-3 ovarian
NCI-H522 lung = tested on: NCI-H522 lung
NCI-H460 lung = tested on: NCI-H460 lung
HT29 colon = tested on: HT29 colon
A549 NSCLC = tested on: A549 NSCLC
NCI-H23 lung = tested on: NCI-H23 lung
SF-295 CNS = tested on: SF-295 CNS
UO-31 renal = tested on: UO-31 renal
COLO 205 colon = tested on: COLO 205 colon
UACC-62 melanoma = tested on: UACC-62 melanoma
HOP-62 NSCLC = tested on: HOP-62 NSCLC
UACC-257 melanoma = tested on: UACC-257 melanoma
NCI-H226 lung = tested on: NCI-H226 lung
K-562 leukemia = tested on: K-562 leukemia
SF-268 CNS = tested on: SF-268 CNS
M14 melanoma = tested on: M14 melanoma
DLD-1 colon = tested on: DLD-1 colon
MOLT-4 leukemia = tested on: MOLT-4 leukemia
SK-MEL-28 melanoma = tested on: SK-MEL-28 melanoma
A498 renal = tested on: A498 renal
KM20L2 colon = tested on: KM20L2 colon
XF 498 CNS = tested on: XF 498 CNS
HCC-2998 colon = tested on: HCC-2998 colon
LOX IMVI melanoma = tested on: LOX IMVI melanoma
M19-MEL melanoma = tested on: M19-MEL melanoma
SW-620 colon = tested on: SW-620 colon
OVCAR-5 ovarian = tested on: OVCAR-5 ovarian
HOP-92 NSCLC = tested on: HOP-92 NSCLC
IGROV1 ovarian = tested on: IGROV1 ovarian
RXF 393 renal = tested on: RXF 393 renal
SK-MEL-2 melanoma = tested on: SK-MEL-2 melanoma
OVCAR-4 ovarian = tested on: OVCAR-4 ovarian
SN12C renal = tested on: SN12C renal
CAKI-1 renal = tested on: CAKI-1 renal
HCT-15 colon = tested on: HCT-15 colon
HOP-18 NSCLC = tested on: HOP-18 NSCLC
MCF7 breast = tested on: MCF7 breast
NCI/ADR-RES ovarian = tested on: NCI/ADR-RES ovarian
T-47D breast = tested on: T-47D breast
SNB-19 CNS = tested on: SNB-19 CNS
MDA-MB-231 breast = tested on: MDA-MB-231 breast
HS 578T breast = tested on: HS 578T breast
MDA-MB-435 = tested on: MDA-MB-435
BT-549 breast = tested on: BT-549 breast
DU-145 prostate = tested on: DU-145 prostate
MDA-N = tested on: MDA-N
DMS 273 small cell lung = tested on: DMS 273 small cell lung
RXF-631 renal = tested on: RXF-631 renal
SR leukemia = tested on: SR leukemia

## C/C(CC(=O)Nc1ccc(C)cc1)=N\NC(N)=S
SF-539 CNS
  TGI: > 100 µM
TK-10 renal
  TGI: > 100 µM
HL-60(TB) leukemia
  TGI: > 100 µM
SK-MEL-5 melanoma
  TGI: > 100 µM
SK-OV-3 ovarian
  TGI: > 100 µM
OVCAR-8 ovarian
  TGI: > 100 µM
DMS 114 small cell lung
  TGI: > 100 µM
KM12 colon
  TGI: > 100 µM
SNB-78 CNS
  TGI: > 100 µM
SNB-75 CNS
  TGI: > 100 µM
MALME-3M melanoma
  TGI: > 100 µM
786-0 renal
  TGI: > 100 µM
EKVX NSCLC
  TGI: > 100 µM
LXFL 529 NSCLC
  TGI: > 100 µM
ACHN renal
  TGI: > 100 µM
RPMI-8226 leukemia
  TGI: > 100 µM
U251 CNS
  TGI: > 100 µM
CCRF-CEM leukemia
  TGI: > 100 µM
HCT-116 colon
  TGI: > 100 µM
OVCAR-3 ovarian
  TGI: > 100 µM
NCI-H522 lung
  TGI: > 100 µM
NCI-H460 lung
  TGI: > 100 µM
HT29 colon
  TGI: > 100 µM
A549 NSCLC
  TGI: > 100 µM
NCI-H23 lung
  TGI: > 100 µM
SF-295 CNS
  TGI: > 100 µM
UO-31 renal
  TGI: > 100 µM
COLO 205 colon
  TGI: > 100 µM
UACC-62 melanoma
  TGI: > 100 µM
HOP-62 NSCLC
  TGI: > 100 µM
UACC-257 melanoma
  TGI: > 100 µM
NCI-H226 lung
  TGI: > 100 µM
K-562 leukemia
  TGI: > 100 µM
SF-268 CNS
  TGI: > 100 µM
M14 melanoma
  TGI: > 100 µM
DLD-1 colon
  TGI: > 100 µM
MOLT-4 leukemia
  TGI: > 100 µM
SK-MEL-28 melanoma
  TGI: > 100 µM
A498 renal
  TGI: > 100 µM
KM20L2 colon
  TGI: > 100 µM
XF 498 CNS
  TGI: > 100 µM
HCC-2998 colon
  TGI: > 100 µM
LOX IMVI melanoma
  TGI: > 100 µM
M19-MEL melanoma
  TGI: > 100 µM
SW-620 colon
  TGI: > 100 µM
OVCAR-5 ovarian
  TGI: > 100 µM
HOP-92 NSCLC
  TGI: > 100 µM
IGROV1 ovarian
  TGI: > 100 µM
RXF 393 renal
  TGI: > 100 µM
SK-MEL-2 melanoma
  TGI: > 100 µM

## c1ccc(SCCP(CCP(c2ccccc2)c2ccccc2)c2ccccc2)cc1 (stereo not given)
SF-539 CNS
  TGI: > 100 µM
TK-10 renal
  TGI: > 100 µM
HL-60(TB) leukemia
  TGI: > 22.2 µM
OVCAR-4 ovarian
  TGI: 97.1 µM
SK-MEL-5 melanoma
  TGI: 33.8 µM
SN12C renal
  TGI: > 88.6 µM
SK-OV-3 ovarian
  TGI: > 100 µM
OVCAR-8 ovarian
  TGI: > 100 µM
DMS 114 small cell lung
  TGI: 33.2 µM
CAKI-1 renal
  TGI: 63.3 µM
KM12 colon
  TGI: > 51 µM
HCT-15 colon
  TGI: > 100 µM
SNB-78 CNS
  TGI: > 100 µM
SNB-75 CNS
  TGI: > 19.6 µM
MALME-3M melanoma
  TGI: > 59.1 µM
786-0 renal
  TGI: > 100 µM
EKVX NSCLC
  TGI: > 67.5 µM
HOP-18 NSCLC
  TGI: 14 µM
LXFL 529 NSCLC
  TGI: 23.3 µM
ACHN renal
  TGI: > 76 µM
RPMI-8226 leukemia
  TGI: > 66.3 µM
U251 CNS
  TGI: > 100 µM
CCRF-CEM leukemia
  TGI: > 100 µM
HCT-116 colon
  TGI: > 24.3 µM
OVCAR-3 ovarian
  TGI: 39.9 µM
NCI-H460 lung
  TGI: > 100 µM
HT29 colon
  TGI: > 100 µM
A549 NSCLC
  TGI: > 100 µM
NCI-H23 lung
  TGI: > 54.1 µM
MCF7 breast
  TGI: > 100 µM
NCI/ADR-RES ovarian
  TGI: > 100 µM
SF-295 CNS
  TGI: > 100 µM
UO-31 renal
  TGI: 53.9 µM
COLO 205 colon
  TGI: 15.8 µM
T-47D breast
  TGI: 79.1 µM
HOP-62 NSCLC
  TGI: > 100 µM
UACC-257 melanoma
  TGI: > 74.7 µM
NCI-H226 lung
  TGI: > 87.6 µM
K-562 leukemia
  TGI: > 100 µM
SNB-19 CNS
  TGI: > 100 µM
SF-268 CNS
  TGI: > 100 µM
MDA-MB-231 breast
  TGI: > 100 µM
M14 melanoma
  TGI: 43.5 µM
DLD-1 colon
  TGI: > 100 µM
MOLT-4 leukemia
  TGI: 81.5 µM
SK-MEL-28 melanoma
  TGI: > 100 µM
HS 578T breast
  TGI: > 100 µM
MDA-MB-435
  TGI: > 100 µM
BT-549 breast
  TGI: 68.7 µM
XF 498 CNS
  TGI: 8.15 µM
DU-145 prostate
  TGI: > 100 µM
HCC-2998 colon
  TGI: > 100 µM
MDA-N
  TGI: > 100 µM
M19-MEL melanoma
  TGI: > 100 µM
SW-620 colon
  TGI: > 100 µM
OVCAR-5 ovarian
  TGI: > 100 µM
DMS 273 small cell lung
  TGI: 13.6 µM
HOP-92 NSCLC
  TGI: 15.1 µM
IGROV1 ovarian
  TGI: > 100 µM
RXF 393 renal
  TGI: > 100 µM
SK-MEL-2 melanoma
  TGI: 7.52 µM

## Nc1nc(Cl)cc(NCCCCO)n1
SF-539 CNS
  TGI: > 100 µM
TK-10 renal
  TGI: > 100 µM
HL-60(TB) leukemia
  TGI: > 100 µM
OVCAR-4 ovarian
  TGI: > 100 µM
SK-MEL-5 melanoma
  TGI: > 100 µM
SN12C renal
  TGI: > 100 µM
SK-OV-3 ovarian
  TGI: > 100 µM
OVCAR-8 ovarian
  TGI: > 100 µM
DMS 114 small cell lung
  TGI: > 100 µM
KM12 colon
  TGI: > 100 µM
HCT-15 colon
  TGI: > 100 µM
SNB-78 CNS
  TGI: > 100 µM
SNB-75 CNS
  TGI: > 100 µM
MALME-3M melanoma
  TGI: > 100 µM
EKVX NSCLC
  TGI: > 100 µM
LXFL 529 NSCLC
  TGI: > 100 µM
ACHN renal
  TGI: > 100 µM
RXF-631 renal
  TGI: > 100 µM
RPMI-8226 leukemia
  TGI: > 100 µM
U251 CNS
  TGI: > 100 µM
CCRF-CEM leukemia
  TGI: > 100 µM
HCT-116 colon
  TGI: > 100 µM
OVCAR-3 ovarian
  TGI: > 10 µM
NCI-H460 lung
  TGI: > 100 µM
HT29 colon
  TGI: > 100 µM
A549 NSCLC
  TGI: > 100 µM
NCI-H23 lung
  TGI: > 100 µM
SF-295 CNS
  TGI: > 100 µM
UO-31 renal
  TGI: > 100 µM
COLO 205 colon
  TGI: > 100 µM
UACC-62 melanoma
  TGI: > 100 µM
HOP-62 NSCLC
  TGI: > 10 µM
UACC-257 melanoma
  TGI: > 100 µM
NCI-H226 lung
  TGI: > 100 µM
K-562 leukemia
  TGI: > 100 µM
SNB-19 CNS
  TGI: > 100 µM
SF-268 CNS
  TGI: > 100 µM
M14 melanoma
  TGI: > 10 µM
DLD-1 colon
  TGI: > 100 µM
MOLT-4 leukemia
  TGI: > 100 µM
SK-MEL-28 melanoma
  TGI: > 100 µM
A498 renal
  TGI: > 100 µM
KM20L2 colon
  TGI: > 100 µM
HCC-2998 colon
  TGI: > 100 µM
LOX IMVI melanoma
  TGI: > 100 µM
M19-MEL melanoma
  TGI: > 100 µM
SW-620 colon
  TGI: > 100 µM
OVCAR-5 ovarian
  TGI: > 100 µM
SR leukemia
  TGI: > 100 µM
DMS 273 small cell lung
  TGI: > 100 µM
HOP-92 NSCLC
  TGI: > 100 µM
IGROV1 ovarian
  TGI: > 100 µM
RXF 393 renal
  TGI: > 100 µM
SK-MEL-2 melanoma
  TGI: > 100 µM
